The record followed here is patent US20230203098A1, “HUMAN TRANSFERRIN RECEPTOR BINDING PEPTIDE” (priority 2020, published 2023).

Where a SMILES comes first, the peptide text is derived from it. Bridges are numbered along the chain shown (N, C = ends). [ ]: non-standard residue; d: D form. The star is where a group is joined. X2 = O=C(O)c1cc(C(=O)*)ccc1-c1c2ccc(=O)cc-2oc2cc(O)ccc12; PEG12 = NCCOCCOCCOCCOCCOCCOCCOCCOCCOCCOCCOCCOCCC(=O)O; NMePhe(3-Cl) = CN[C@@H](Cc1cccc(Cl)c1)C(=O)O; NMeW = CN[C@@H](Cc1c[nH]c2ccccc12)C(=O)O; Lys(N3) = [N-]=[N+]=NCCCC[C@H](N)C(=O)O; X4 = O=C1C=CC(=O)N1CC1CCC(C(=O)*)CC1; NMeY = CN[C@@H](Cc1ccc(O)cc1)C(=O)O

The term Kd denotes the free concentration of one partner at which half of the binding sites on the other are occupied at equilibrium, for simple one-to-one binding.

Chain of transferrin receptor (hTfR) (P02786 whole entry): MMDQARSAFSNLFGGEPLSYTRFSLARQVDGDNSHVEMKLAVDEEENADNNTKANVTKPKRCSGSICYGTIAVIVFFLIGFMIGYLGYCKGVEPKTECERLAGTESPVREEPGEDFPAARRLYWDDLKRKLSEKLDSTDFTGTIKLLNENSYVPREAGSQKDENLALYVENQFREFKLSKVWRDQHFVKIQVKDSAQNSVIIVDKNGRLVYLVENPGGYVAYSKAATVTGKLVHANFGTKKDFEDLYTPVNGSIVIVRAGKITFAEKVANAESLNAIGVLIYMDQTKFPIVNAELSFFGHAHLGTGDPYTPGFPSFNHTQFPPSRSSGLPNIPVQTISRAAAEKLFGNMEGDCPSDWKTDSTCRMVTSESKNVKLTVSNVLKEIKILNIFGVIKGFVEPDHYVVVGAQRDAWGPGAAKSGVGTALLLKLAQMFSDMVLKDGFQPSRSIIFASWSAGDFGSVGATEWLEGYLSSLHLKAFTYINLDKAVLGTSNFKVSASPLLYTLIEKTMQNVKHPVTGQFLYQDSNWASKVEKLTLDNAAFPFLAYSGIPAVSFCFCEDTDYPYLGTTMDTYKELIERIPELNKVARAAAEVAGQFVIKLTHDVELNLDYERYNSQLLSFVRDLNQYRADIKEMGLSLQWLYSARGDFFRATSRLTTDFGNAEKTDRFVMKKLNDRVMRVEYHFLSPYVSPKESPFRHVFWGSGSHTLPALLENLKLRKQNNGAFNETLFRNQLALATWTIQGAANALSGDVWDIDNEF

The test addresses transferrin receptor (hTfR) (Homo sapiens, UniProt P02786). Nature of the test: Intermolecular interaction evaluation test between transferrin receptor (hTfR) and peptide by surface plasmon resonance (SPR). Type of test: binding. The conditions noted are these: SPR; peptides, linker-added peptides and FITC conjugates, Patent ID 203-230; read-out: KD. An outline of the steps: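 hTfR captured on Ni-NTA chip then amine-coupled; peptides run single-cycle kinetics at 5–100 nM in 10 mM HEPES pH 8.0, 150 mM NaCl, 0.05% Tween 20, 0.1% BSA, 1.0% DMSO. KD from least-squares curve fitting of sensorgrams.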
On to `CC[C@H](C)[C@@H]1NC(=O)[C@H](Cc2ccc(O)cc2)NC(=O)[C@H](Cc2ccc(O)cc2)NC(=O)[C@H](CC(N)=O)NC(=O)[C@H](Cc2c[nH]c3ccccc23)NC(=O)[C@H](C(C)C)NC(=O)[C@H](Cc2ccccc2)NC(=O)[C@H](C(C)C)NC(=O)[C@H](C)NC(=O)CSC[C@@H](C(=O)NCCOCCOCCOCCOCCOCCOCCOCCOCCOCCOCCOCCOCCC(=O)N[C@@H](CCCCNC(=O)c2ccc(-c3c4ccc(=O)cc-4oc4cc(O)ccc34)c(C(=O)O)c2)C(N)=O)NC(=O)[C@H](Cc2c[nH]c3ccccc23)N(C)C(=O)[C@H](CCCNC(=N)N)NC(=O)[C@@H]2CCCN2C(=O)[C@H](C(C)C)NC1=O` [compound 210] ({CH2CO}-AVFVWNYYIVPR[NMeW]C[PEG12]K(X2)-NH2; thioether N-14), for which the Kd was 1 to 100 nM.
`CC[C@H](C)[C@@H]1NC(=O)[C@H](Cc2ccc(O)cc2)NC(=O)[C@H](Cc2ccc(O)cc2)NC(=O)[C@H](CC(N)=O)NC(=O)[C@H](Cc2c[nH]c3ccccc23)NC(=O)[C@H](C(C)C)NC(=O)[C@H](Cc2ccccc2)NC(=O)[C@H](C(C)C)NC(=O)[C@H](C)NC(=O)CSC[C@@H](C(=O)NCCOCCOCCOCCOCCOCCOCCOCCOCCOCCOCCOCCOCCC(=O)N[C@@H](CCCCNC(=O)c2ccc(-c3c4ccc(=O)cc-4oc4cc(O)ccc34)c(C(=O)O)c2)C(N)=O)NC(=O)[C@H](CCC(=O)O)NC(=O)[C@H](CCCNC(=N)N)NC(=O)[C@@H]2CCCN2C(=O)[C@H](C(C)C)NC1=O` [compound 211] ({CH2CO}-AVFVWNYYIVPREC[PEG12]K(X2)-NH2; thioether N-14): the Kd was in the range of 1 to 100 nM.
For `CC[C@H](C)[C@@H]1NC(=O)[C@H](Cc2ccc(O)cc2)NC(=O)[C@H](Cc2ccc(O)cc2)NC(=O)[C@H](CC(N)=O)NC(=O)[C@H](Cc2c[nH]c3ccccc23)NC(=O)[C@H](C(C)C)NC(=O)[C@H](Cc2ccccc2)NC(=O)[C@H](C(C)C)NC(=O)[C@H](C)NC(=O)CSC[C@@H](C(=O)NCCOCCOCCOCCOCCOCCOCCOCCOCCOCCOCCOCCOCCC(=O)N[C@@H](CCCCNC(=O)c2ccc(-c3c4ccc(=O)cc-4oc4cc(O)ccc34)c(C(=O)O)c2)C(N)=O)NC(=O)[C@H](CC(N)=O)NC(=O)[C@H](CCCNC(=N)N)NC(=O)[C@@H]2CCCN2C(=O)[C@H](C(C)C)NC1=O` [compound 212] ({CH2CO}-AVFVWNYYIVPRNC[PEG12]K(X2)-NH2; thioether N-14), the Kd lay within 1 to 100 nM.
On to `CC[C@H](C)[C@@H]1NC(=O)[C@H](Cc2ccc(OC)cc2)NC(=O)[C@H](Cc2ccc(O)cc2)NC(=O)[C@H](CC(N)=O)NC(=O)[C@H](Cc2c[nH]c3ccccc23)N(C)C(=O)[C@H](C(C)C)NC(=O)[C@H](Cc2cccc(Cl)c2)N(C)C(=O)[C@H](C(C)C)NC(=O)[C@H](C)N(C)C(=O)CSC[C@@H](C(N)=O)NC(=O)[C@H](Cc2ccc(O)cc2)N(C)C(=O)[C@H](Cc2ccccc2)NC(=O)[C@H](CCCNC(=N)N)NC(=O)[C@H](CCCCN)NC(=O)[C@H]([C@@H](C)CC)NC1=O` [compound 213], for which the Kd was in the range of 1 to 100 nM.
Consider `CC[C@H](C)[C@@H]1NC(=O)[C@H](Cc2ccc(OC)cc2)NC(=O)[C@H](Cc2ccc(O)cc2)NC(=O)[C@H](CC(N)=O)NC(=O)[C@H](Cc2c[nH]c3ccccc23)N(C)C(=O)[C@H](C(C)C)NC(=O)[C@H](Cc2cccc(Cl)c2)N(C)C(=O)[C@H](C(C)C)NC(=O)[C@H](C)N(C)C(=O)CSC[C@@H](C(N)=O)NC(=O)[C@H](Cc2ccc(O)cc2)N(C)C(=O)[C@H](Cc2ccccc2)NC(=O)[C@H](CCCNC(=N)N)NC(=O)[C@H](CCCNC(=N)N)NC(=O)[C@H]([C@@H](C)CC)NC1=O` [compound 214], for which the Kd was in the range of 1 to 100 nM.
In the case of `CC[C@H](C)[C@@H]1NC(=O)[C@H](Cc2ccc(OC)cc2)NC(=O)[C@H](Cc2ccc(O)cc2)NC(=O)[C@H](CC(N)=O)NC(=O)[C@H](Cc2c[nH]c3ccccc23)N(C)C(=O)[C@H](C(C)C)NC(=O)[C@H](Cc2cccc(Cl)c2)N(C)C(=O)[C@H](C(C)C)NC(=O)[C@H](C)N(C)C(=O)CSC[C@@H](C(N)=O)NC(=O)[C@H](Cc2ccc(O)cc2)N(C)C(=O)[C@H](Cc2ccccc2)NC(=O)[C@@H](CCCNC(=N)N)NC(=O)[C@H](CCCNC(=N)N)NC(=O)[C@H]([C@@H](C)CC)NC1=O` [compound 215], the equilibrium dissociation constant (Kd) lay in the range of 1 to 100 nM.
With `CC[C@H](C)[C@@H]1NC(=O)[C@H](Cc2ccc(OC)cc2)NC(=O)[C@H](Cc2ccc(O)cc2)NC(=O)[C@H](CC(N)=O)NC(=O)[C@H](Cc2c[nH]c3ccccc23)N(C)C(=O)[C@H](C(C)C)NC(=O)[C@H](Cc2cccc(Cl)c2)N(C)C(=O)[C@H](C(C)C)NC(=O)[C@H](C)N(C)C(=O)CSC[C@@H](C(N)=O)NC(=O)[C@H](Cc2ccc(O)cc2)N(C)C(=O)[C@H](Cc2ccccc2)NC(=O)[C@@H](C)NC(=O)[C@H](CCCNC(=N)N)NC(=O)[C@H]([C@@H](C)CC)NC1=O` [compound 216] the figure was greater than 1000 nM.
Turning to `CC[C@H](C)[C@@H]1NC(=O)[C@H](Cc2ccc(OC)cc2)NC(=O)[C@H](Cc2ccc(O)cc2)NC(=O)[C@H](CC(N)=O)NC(=O)[C@H](Cc2c[nH]c3ccccc23)N(C)C(=O)[C@H](C(C)C)NC(=O)[C@H](Cc2cccc(Cl)c2)N(C)C(=O)[C@H](C(C)C)NC(=O)[C@H](CCC(=O)O)NC(=O)CSC[C@@H](C(N)=O)NC(=O)[C@H](Cc2ccc(O)cc2)N(C)C(=O)[C@H](Cc2ccccc2)NC(=O)[C@H](CCCNC(=N)N)NC(=O)[C@H](CCCNC(=N)N)NC(=O)[C@H]([C@@H](C)CC)NC1=O` [compound 217], the Kd is 1 to 100 nM.
In the case of `CC[C@H](C)[C@@H]1NC(=O)[C@H](Cc2ccc(O)cc2)NC(=O)[C@H](Cc2ccc(O)cc2)NC(=O)[C@H](CC(N)=O)NC(=O)[C@H](Cc2c[nH]c3ccccc23)NC(=O)[C@H](C(C)C)NC(=O)[C@H](Cc2ccccc2)NC(=O)[C@H](C(C)C)NC(=O)[C@H](CCC(=O)O)NC(=O)CSC[C@@H](C(=O)NCCOCCOCCOCCOCCOCCOCCOCCOCCOCCOCCOCCOCCC(=O)NN)NC(=O)[C@H](Cc2ccc(O)cc2)N(C)C(=O)[C@H](Cc2ccc(O)cc2)NC(=O)[C@H](CCCNC(=N)N)NC(=O)[C@H](CCCNC(=N)N)NC(=O)[C@H]([C@@H](C)CC)NC1=O` [compound 218], the Kd was in the range of 1 to 100 nM.
With `CC[C@H](C)[C@@H]1NC(=O)[C@H](Cc2ccc(O)cc2)NC(=O)[C@H](Cc2ccc(O)cc2)NC(=O)[C@H](CC(N)=O)NC(=O)[C@H](Cc2c[nH]c3ccccc23)NC(=O)[C@H](C(C)C)NC(=O)[C@H](Cc2ccccc2)NC(=O)[C@H](CCC(=O)O)NC(=O)[C@H](C)NC(=O)CSC[C@@H](C(N)=O)NC(=O)[C@H](Cc2ccc(O)cc2)N(C)C(=O)[C@H](Cc2ccc(O)cc2)NC(=O)[C@H](CCCNC(=N)N)NC(=O)[C@H](CCCNC(=N)N)NC(=O)[C@H]([C@@H](C)CC)NC1=O` [compound 219], the Kd was in the range of 1 to 100 nM.
Consider `CC[C@H](C)[C@@H]1NC(=O)[C@H](Cc2ccc(OC)cc2)NC(=O)[C@H](Cc2ccc(O)cc2)NC(=O)[C@H](CC(N)=O)NC(=O)[C@H](Cc2c[nH]c3ccccc23)NC(=O)[C@H](C(C)C)NC(=O)[C@H](Cc2cccc(Cl)c2)N(C)C(=O)[C@H](CCC(=O)O)NC(=O)[C@H](C)NC(=O)CSC[C@@H](C(=O)NCC(=O)NCC(=O)N[C@@H](CO)C(=O)NCC(=O)N[C@@H](CO)C(=O)NCC(=O)N[C@@H](CCCCNC(=O)C2CCC(CN3C(=O)C=CC3=O)CC2)C(N)=O)NC(=O)[C@H](Cc2ccc(O)cc2)N(C)C(=O)[C@H](Cc2ccccc2)NC(=O)[C@@H](CCCNC(=N)N)NC(=O)[C@H](CCCNC(=N)N)NC(=O)[C@H]([C@@H](C)CC)NC1=O` (some centres unmarked) [compound 222] ({CH2CO}-AE[NMePhe(3-Cl)]VWNYY(Me)IIR[dR]F[NMeY]CGGSGSGK(X4)-NH2; thioether N-15), for which the Kd fell in the range of 1 to 100 nM.
With `CC[C@H](C)[C@@H]1NC(=O)[C@H](Cc2ccc(OC)cc2)NC(=O)[C@H](Cc2ccc(O)cc2)NC(=O)[C@H](CC(N)=O)NC(=O)[C@H](Cc2c[nH]c3ccccc23)N(C)C(=O)[C@H](C(C)C)NC(=O)[C@H](Cc2cccc(Cl)c2)N(C)C(=O)[C@H](CCC(=O)O)NC(=O)[C@H](C)NC(=O)CSC[C@@H](C(=O)NCC(=O)NCC(=O)NCC(=O)NCC(=O)N[C@@H](CO)C(=O)N[C@@H](CO)C(=O)N[C@@H](CS)C(N)=O)NC(=O)[C@H](Cc2ccc(O)cc2)N(C)C(=O)[C@H](Cc2ccccc2)NC(=O)[C@@H](CCCNC(=N)N)NC(=O)[C@H](CCCNC(=N)N)NC(=O)[C@H](CCC(=O)O)NC1=O` [compound 223], the dissociation constant (Kd) fell in the range of 1 to 100 nM.
With `CC[C@H](C)[C@@H]1NC(=O)[C@H](Cc2ccc(OC)cc2)NC(=O)[C@H](Cc2ccc(O)cc2)NC(=O)[C@H](CC(N)=O)NC(=O)[C@H](Cc2c[nH]c3ccccc23)N(C)C(=O)[C@H](C(C)C)NC(=O)[C@H](Cc2cccc(Cl)c2)N(C)C(=O)[C@H](CCC(=O)O)NC(=O)[C@H](C)NC(=O)CSC[C@@H](C(=O)NCC(=O)N[C@@H](CCCCN=[N+]=[N-])C(N)=O)NC(=O)[C@H](Cc2ccc(O)cc2)N(C)C(=O)[C@H](Cc2ccccc2)NC(=O)[C@@H](CCCNC(=N)N)NC(=O)[C@H](CCCNC(=N)N)NC(=O)[C@H](CCC(=O)O)NC1=O` [compound 224] ({CH2CO}-AE[NMePhe(3-Cl)]V[NMeW]NYY(Me)IER[dR]F[NMeY]CG[Lys(N3)]-NH2; thioether N-15) the figure was 1 to 100 nM.
With `CC[C@H](C)[C@@H]1NC(=O)[C@H](Cc2ccc(OC)cc2)NC(=O)[C@H](Cc2ccc(O)cc2)NC(=O)[C@H](CC(N)=O)NC(=O)[C@H](Cc2c[nH]c3ccccc23)N(C)C(=O)[C@H](C(C)C)NC(=O)[C@H](Cc2cccc(Cl)c2)N(C)C(=O)[C@H](CCC(=O)O)NC(=O)[C@H](C)NC(=O)CSC[C@@H](C(N)=O)NC(=O)[C@H](Cc2ccc(O)cc2)N(C)C(=O)[C@H](Cc2ccccc2)NC(=O)[C@H](CCCCN)NC(=O)[C@H](C)NC(=O)[C@H]([C@@H](C)CC)NC1=O` [compound 225] ({CH2CO}-AE[NMePhe(3-Cl)]V[NMeW]NYY(Me)IIAKF[NMeY]C-NH2; thioether N-15), the dissociation constant Kd lay within 1 to 100 nM.
